Assay results reported in PubChem BioAssay AID248 (DTP/NCI, 2004).
“And” between values parts separate entries of the source, which are not always exact repeats. Equal entries are not always repeated. Inconclusive results and toxic doses are left out. Square brackets hold non-standard residues; d marks the D form. Peptide text beside a SMILES is read from it. * marks the point of attachment. ξ: configuration not given here. Tos = Cc1ccc(S(=O)(=O)*)cc1; ξY = NC(Cc1ccc(O)cc1)C(=O)O

Test system: L1210 leukemia ip in BDF1 mice, survival T/C
Experiment: NCI In Vivo Anticancer Drug Screen. Data for tumor model L1210 Leukemia (intraperitoneal) in B6D2F1 (BDF1) mice
Conditions: endpoint: mean survival time, higher = longer survival
Method in brief: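 Transplanted-tumor mice were given test agent; controls received vehicle only. Survival readings from the two groups were divided (treated over control).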

[1] = dose: 100.0 mg/kg/injection, schedule: Q04DX003 (ip), vehicle: Klucel (hydroxypropylcellulose) (HPC)
[2] = dose: 200.0 mg/kg/injection, schedule: Q04DX003 (ip), vehicle: Klucel (hydroxypropylcellulose) (HPC)
[3] = dose: 400.0 mg/kg/injection, schedule: Q04DX003 (ip), vehicle: Klucel (hydroxypropylcellulose) (HPC)
[4] = dose: 100.0 mg/kg/injection, schedule: Q01DX009 (ip), vehicle: saline with Tween-80
[5] = dose: 200.0 mg/kg/injection, schedule: Q01DX009 (ip), vehicle: saline with Tween-80
[6] = dose: 400.0 mg/kg/injection, schedule: Q01DX009 (ip), vehicle: saline with Tween-80
[7] = dose: 100.0 mg/kg/injection, schedule: Q01DX009 (ip), vehicle: Klucel (hydroxypropylcellulose) (HPC)
[8] = dose: 400.0 mg/kg/injection, schedule: Q01DX009 (ip), vehicle: Klucel (hydroxypropylcellulose) (HPC)
[9] = dose: 100.0 mg/kg/injection, schedule: Q01DX001 (ip), vehicle: saline
[10] = dose: 200.0 mg/kg/injection, schedule: Q01DX001 (ip), vehicle: saline
[11] = dose: 400.0 mg/kg/injection, schedule: Q01DX001 (ip), vehicle: saline
[12] = dose: 100.0 mg/kg/injection, schedule: Q04DX003 (ip), vehicle: other
[13] = dose: 200.0 mg/kg/injection, schedule: Q04DX003 (ip), vehicle: other

Compound: CC[n+]1ccc(-c2ccc(NC(=O)c3ccc(C(=O)Nc4ccc(-c5cc[n+](CC)cc5)cc4)cc3)cc2)cc1
- T/C (dose: 2.5 mg/kg/injection, schedule: Q01DX015 (ip), vehicle: carboxymethylcellulose (CMC)): 224 % of control
- T/C (dose: 3.7 mg/kg/injection, schedule: Q01DX001 (ip), vehicle: carboxymethylcellulose (CMC)): 118 % of control
- T/C (dose: 5.0 mg/kg/injection, schedule: Q01DX015 (ip), vehicle: carboxymethylcellulose (CMC)): 157 % of control
- T/C (dose: 7.5 mg/kg/injection, schedule: Q01DX001 (ip), vehicle: carboxymethylcellulose (CMC)): 176 % of control
- T/C (dose: 10.0 mg/kg/injection, schedule: Q01DX015 (ip), vehicle: carboxymethylcellulose (CMC)): 123 % of control
- T/C (dose: 15.0 mg/kg/injection, schedule: Q01DX001 (ip), vehicle: carboxymethylcellulose (CMC)): 163 % of control
- T/C (dose: 20.0 mg/kg/injection, schedule: Q01DX015 (ip), vehicle: carboxymethylcellulose (CMC)): 94 % of control
- T/C (dose: 30.0 mg/kg/injection, schedule: Q01DX001 (ip), vehicle: carboxymethylcellulose (CMC)): 177 % of control and 194 % of control
- T/C (dose: 30.0 mg/kg/injection, schedule: Q01DX015 (ip), vehicle: carboxymethylcellulose (CMC)): 86 % of control
- T/C (dose: 40.0 mg/kg/injection, schedule: Q01DX001 (ip), vehicle: carboxymethylcellulose (CMC)): 192 % of control and 296 % of control
- T/C (dose: 60.0 mg/kg/injection, schedule: Q01DX001 (ip), vehicle: carboxymethylcellulose (CMC)): 211 % of control and 305 % of control and 307 % of control
- T/C (dose: 90.0 mg/kg/injection, schedule: Q01DX001 (ip), vehicle: carboxymethylcellulose (CMC)): 157 % of control and 228 % of control
- T/C (dose: 150.0 mg/kg/injection, schedule: Q01DX001 (ip), vehicle: carboxymethylcellulose (CMC)): 103 % of control
- T/C (dose: 225.0 mg/kg/injection, schedule: Q01DX001 (ip), vehicle: carboxymethylcellulose (CMC)): 91 % of control

Compound: CCCCCCCCCCCCCCCCOc1ccc(C(=O)OC)cc1N
- T/C [1]: 102 % of control
- T/C [2]: 104 % of control
- T/C [3]: 96 % of control

Compound: FC1(F)SC2c3cccc4cccc(c34)C2C1(F)F (centres undefined)
- T/C [4]: 102 % of control
- T/C [5]: 104 % of control
- T/C [6]: 96 % of control

Compound: N=C(N)N=Nc1cc(O)c(NN=C(N)N)cc1O
- T/C (dose: 7.5 mg/kg/injection, schedule: Q01DX Z (oral), vehicle: saline): 95 % of control
- T/C (dose: 15.0 mg/kg/injection, schedule: Q01DX Z (ip), vehicle: saline): 98 % of control
- T/C (dose: 15.0 mg/kg/injection, schedule: Q01DX Z (oral), vehicle: saline): 96 % of control
- T/C (dose: 30.0 mg/kg/injection, schedule: Q01DX Z (oral), vehicle: saline): 98 % of control

Compound: O=C1OC(c2cccc(Cl)c2)=N/C1=C\c1ccccc1O
- T/C [7]: 94 % of control
- T/C [8]: 94 % of control

Compound: CCCc1cc(CCC)n2nc(N)nc2n1
- T/C (dose: 50.0 mg/kg/injection, schedule: Q01DX009 (ip), vehicle: saline with Tween-80): 100 % of control
- T/C [4]: 98 % of control
- T/C [5]: 96 % of control

Compound: O=C(c1ccccc1)c1ccc(N2CCOCC2)cc1
- T/C (dose: 100.0 mg/kg/injection, schedule: Q01DX001 (ip), vehicle: other): 96 % of control
- T/C (dose: 200.0 mg/kg/injection, schedule: Q01DX001 (ip), vehicle: other): 98 % of control
- T/C (dose: 400.0 mg/kg/injection, schedule: Q01DX001 (ip), vehicle: other): 90 % of control

Compound: O=[N+]([O-])c1ccc(S(=O)(=O)/N=C2\CCS(=O)(=O)c3ccccc32)cc1
- T/C [9]: 92 % of control
- T/C [10]: 92 % of control
- T/C [11]: 93 % of control

Compound: CSc1nc(N)c(N=Nc2ccc(S(=O)(=O)Nc3nccc(C)n3)cc2)c(=O)[nH]1
- T/C (dose: 100.0 mg/kg/injection, schedule: Q01DX001 (ip), vehicle: carboxymethylcellulose (CMC)): 86 % of control
- T/C (dose: 200.0 mg/kg/injection, schedule: Q01DX001 (ip), vehicle: carboxymethylcellulose (CMC)): 97 % of control
- T/C (dose: 400.0 mg/kg/injection, schedule: Q01DX001 (ip), vehicle: carboxymethylcellulose (CMC)): 97 % of control

Compound: CCCCCCCCOc1ccc(C(=O)c2ccccc2)c(O)c1
- T/C [7]: 100 % of control
- T/C [1]: 94 % of control
- T/C (dose: 200.0 mg/kg/injection, schedule: Q01DX009 (ip), vehicle: Klucel (hydroxypropylcellulose) (HPC)): 101 % of control
- T/C [2]: 96 % of control
- T/C [8]: 94 % of control
- T/C [3]: 94 % of control

Compound: CC1=CC(=O)CC(c2ccc(N(C)C)cc2)C1 (centres undefined)
- T/C (dose: 25.6 mg/kg/injection, schedule: Q04DX002 (ip), vehicle: saline with Tween-80): 101 % of control
- T/C (dose: 64.0 mg/kg/injection, schedule: Q04DX002 (ip), vehicle: saline with Tween-80): 97 % of control

Compound: S=C(c1ccccn1)N1CCOCC1
- T/C [1]: 90 % of control
- T/C [2]: 102 % of control
- T/C [3]: 95 % of control

Compound: CCOc1cc(OCC)c(/C=C/[N+](=O)[O-])c(OCC)c1
- T/C (dose: 100.0 mg/kg/injection, schedule: Q04DX002 (ip), vehicle: Klucel (hydroxypropylcellulose) (HPC)): 87 % of control
- T/C (dose: 200.0 mg/kg/injection, schedule: Q04DX002 (ip), vehicle: Klucel (hydroxypropylcellulose) (HPC)): 97 % of control
- T/C (dose: 400.0 mg/kg/injection, schedule: Q04DX002 (ip), vehicle: Klucel (hydroxypropylcellulose) (HPC)): 100 % of control

Compound: CCC(CC)=NNS(=O)(=O)c1ccccc1
- T/C (dose: 75.0 mg/kg/injection, schedule: Q01DX001 (ip), vehicle: saline): 100 % of control
- T/C (dose: 150.0 mg/kg/injection, schedule: Q01DX001 (ip), vehicle: saline): 100 % of control
- T/C (dose: 300.0 mg/kg/injection, schedule: Q01DX001 (ip), vehicle: saline): 102 % of control

Compound: CC1C(C)(C)P(=O)(SCc2ccccc2)C1(C)C (centres undefined)
- T/C (dose: 100.0 mg/kg/injection, schedule: Q04DX003 (ip), vehicle: saline): 94 % of control
- T/C (dose: 200.0 mg/kg/injection, schedule: Q04DX003 (ip), vehicle: saline): 103 % of control
- T/C (dose: 400.0 mg/kg/injection, schedule: Q04DX003 (ip), vehicle: saline): 100 % of control

Compound: BrCC1=CC(c2ccccc2)(c2ccccc2)c2ccccc21
- T/C (dose: 100.0 mg/kg/injection, schedule: Q04DX003 (ip), vehicle: saline with Tween-80): 89 % of control
- T/C (dose: 200.0 mg/kg/injection, schedule: Q04DX003 (ip), vehicle: saline with Tween-80): 89 % of control
- T/C (dose: 400.0 mg/kg/injection, schedule: Q04DX003 (ip), vehicle: saline with Tween-80): 87 % of control

Compound: CC(=O)Nc1nc(C)c(CCCN(Cc2ccccc2)C(C)=O)c(=O)[nH]1
- T/C (dose: 75.0 mg/kg/injection, schedule: Q01DX001 (ip), vehicle: Klucel (hydroxypropylcellulose) (HPC)): 96 % of control
- T/C (dose: 150.0 mg/kg/injection, schedule: Q01DX001 (ip), vehicle: Klucel (hydroxypropylcellulose) (HPC)): 99 % of control
- T/C (dose: 300.0 mg/kg/injection, schedule: Q01DX001 (ip), vehicle: Klucel (hydroxypropylcellulose) (HPC)): 92 % of control

Compound: CCOC(=O)N/N=C/c1ccccc1
- T/C (dose: 200.0 mg/kg/injection, schedule: Q01DX001 (ip), vehicle: Klucel (hydroxypropylcellulose) (HPC)): 108 % of control
- T/C (dose: 400.0 mg/kg/injection, schedule: Q01DX001 (ip), vehicle: Klucel (hydroxypropylcellulose) (HPC)): 118 % of control

Compound: COc1ccc(C(=O)c2c(C(=O)O)ccc3ccccc23)cc1
- T/C [4]: 104 % of control
- T/C [12]: 101 % of control
- T/C [5]: 95 % of control
- T/C [13]: 100 % of control
- T/C [6]: 106 % of control
- T/C (dose: 400.0 mg/kg/injection, schedule: Q04DX003 (ip), vehicle: other): 100 % of control

Compound: Cc1ccnc2c1ccc1ccccc12
- T/C [9]: 100 % of control
- T/C [10]: 98 % of control
- T/C [11]: 93 % of control

Compound: NNC(=O)c1ncn(C2OC(CO)C(O)C2O)c1C(=O)NN (centres undefined)
- T/C (dose: 50.0 mg/kg/injection, schedule: Q01DX001 (ip), vehicle: saline): 102 % of control
- T/C [9]: 98 % of control
- T/C [10]: 102 % of control
- T/C [11]: 98 % of control

Compound: S=C(N/N=C/c1ccc2c(c1)OCO2)Nc1cccc2cccnc12
- T/C [9]: 105 % of control
- T/C [10]: 88 % of control
- T/C [11]: 96 % of control

Compound: CNC(=O)N(C(C)C)C1CCCCC1
- T/C [12]: 102 % of control
- T/C [13]: 96 % of control

Compound: C[Se]c1nc2c(=O)[nH]cnc2n1C1OC(CO)C(O)C1O (centres undefined)
- T/C (dose: 100.0 mg/kg/injection, schedule: Q01DX005 (ip), vehicle: saline): 103 % of control
- T/C (dose: 200.0 mg/kg/injection, schedule: Q01DX005 (ip), vehicle: saline): 111 % of control

Compound: Cc1ccc(S(=O)(=O)NCC(=O)NC(Cc2ccc(O)cc2)C(=O)O)cc1 (stereo not drawn) (Tos-Gly-[ξY]-OH)
- T/C (dose: 100.0 mg/kg/injection, schedule: Q01DX009 (ip), vehicle: other): 105 % of control
- T/C (dose: 200.0 mg/kg/injection, schedule: Q01DX009 (ip), vehicle: other): 102 % of control
- T/C (dose: 400.0 mg/kg/injection, schedule: Q01DX009 (ip), vehicle: other): 104 % of control
